Patent publication US11555036B2, “FGFR4 inhibitor, preparation method therefor and pharmaceutical use thereof” (Abbisko Therapeutics Co., Ltd., priority 2016, dated 2023)

Experiments:
[1] = tested on: Huh7 hepatocellular carcinoma cells; assay: FGFR4 cell proliferation experiment, Cell Titer Glo (CTG); type: cell-based; details: Homo sapiens, Huh-7, 72 h, HuH-7 cells, 3 days; for IC50: concentration leading to absolute half growth inhibition; for EC50: concentration leading to half maximal growth inhibition
Description: II. FGFR4 Cell Proliferation Experiment
Cell Titer Glo (CTG) experiment was used in the present invention to evaluate the functional effects of the compounds on cell proliferation. […] Compound-mediated inhibition of cell proliferation/survival was assessed by quantification of cellular ATP levels using CTG reagent (Promega, #G7573). The specific experimental procedure was as follows:
2. 10 μL of medium containing a compound concentration of 10 fold of its final test concentration was added;
3. The dose effect was evaluated by a 5-fold serial dilution of the test compound, starting from 10 μM.
4. After cells incubation for 3 days at 37° C. under 5% CO2, the effect of the inhibitor on cell proliferation was quantified after adding 50 μL of CTG and testing with luminescence.

FGFR4 = FGFR4 (Homo sapiens, UniProt P22455); assay: FGFR4 Caliper Assay (in vitro biochemical kinase analysis of FGFR4); details: read-out: Enzymatic activity FGFR4 IC50
FGFR4, sequence (P22455 22-802): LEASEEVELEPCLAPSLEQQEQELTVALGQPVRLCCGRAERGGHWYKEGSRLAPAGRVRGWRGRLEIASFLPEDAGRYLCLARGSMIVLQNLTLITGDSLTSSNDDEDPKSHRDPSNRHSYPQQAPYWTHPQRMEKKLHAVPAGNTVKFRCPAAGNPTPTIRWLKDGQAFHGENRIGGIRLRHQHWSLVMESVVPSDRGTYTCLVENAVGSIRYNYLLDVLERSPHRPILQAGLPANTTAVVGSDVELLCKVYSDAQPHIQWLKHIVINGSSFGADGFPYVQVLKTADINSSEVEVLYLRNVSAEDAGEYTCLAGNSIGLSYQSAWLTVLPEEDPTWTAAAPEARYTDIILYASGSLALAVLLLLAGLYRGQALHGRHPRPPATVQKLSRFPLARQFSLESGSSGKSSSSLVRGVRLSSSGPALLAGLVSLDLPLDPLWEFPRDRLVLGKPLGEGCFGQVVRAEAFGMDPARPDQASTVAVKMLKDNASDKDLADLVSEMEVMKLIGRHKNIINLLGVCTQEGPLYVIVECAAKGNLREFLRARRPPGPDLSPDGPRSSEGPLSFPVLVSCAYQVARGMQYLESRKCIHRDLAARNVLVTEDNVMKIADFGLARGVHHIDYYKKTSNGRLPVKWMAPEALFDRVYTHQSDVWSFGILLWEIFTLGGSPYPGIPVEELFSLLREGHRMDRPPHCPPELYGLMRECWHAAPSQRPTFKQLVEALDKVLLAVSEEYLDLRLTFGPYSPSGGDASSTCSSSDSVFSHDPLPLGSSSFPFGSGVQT
Description: I. In Vitro Biochemical Kinase Analysis of FGFR4
FGFR4 Caliper Assay was used in the present invention to determine the inhibitory activities of the compounds against FGFR4. The detailed experimental procedure was as follows.
2. A reaction system is a mixture solution of 50 mM HEPES, pH 7.5, 1 mM DTT, 0.02% Tween 20, 0.02% BSA, 0.6% DMSO, 10 mM beta glycerol phosphate and 10 μM sodium orthovanadate and 16 mM MgCl2.
3. The reaction system was incubated at 30° C. for 40 minutes.
4. The reaction was terminated by adding a stop solution (100 mM HEPES, pH 7.5, 5% DMSO, 0.1% Caliper coating reagent, 10 mM EDTA and 0.015% Brij35).
5. The culture plate with the terminated kinase reaction was transferred to the Caliper LC 3000 workstation to read the data, the phosphorylated and unphosphorylated peptides were separated by using the Caliper microfluid migration shift technique, and the analyte was transferred by allowing a constant buffer flow through the chip, the migration of the substrate peptide was monitored by the labeled fluorescent signal, and the kinase activity was calculated by using the amount of the phosphate-based peptide formed.
6. Finally, IC50 values were determined by non-linear regression analysis of percent inhibition at different compound concentrations.

Row | Compound | IC50 [1] | EC50 [1] | IC50 (FGFR4)
1 | C=CC(=O)N[C@H]1COC[C@H]1Nc1ncc2cc(-c3c(Cl)c(OC)cc(OC)c3Cl)ncc2n1 (racemic) [Example 118, (±)—N-((3R,4S)-4-((6-(2,6-dichloro-3,5-dimethoxyphenyl)pyrido[3,4-d]pyrimidin-2-yl)amino)tetrahydrofuran-3-yl)acrylamide] | 333 nM | 179 nM | 80.5 nM
2 | C=CC(=O)Nc1cc(N2CCN(C)CC2)cc(C)c1Nc1cc2c(=O)n(C)c(-c3c(Cl)c(OC)cc(OC)c3Cl)nc2cn1 [Example 75, N-(2-((2-(2,6-dichloro-3,5-dimethoxyphenyl)-3-methyl-4-oxo-3,4-dihydropyrido [3,4-d]pyrimidin-6-yl)amino)-3-methyl-5-(4-methyl-piperazin-1-yl)phenyl) acrylamide] | > 10000 nM | > 10000 nM | 247 nM
3 | C=CC(=O)Nc1cn(C)nc1Nc1ncc2cc(-c3c(Cl)c(OC)cc(OC)c3Cl)nc(NCC3CC3)c2n1 [Example 76, N-(3-((8-((cyclopropylmethyl)amino)-6-(2,6-dichloro-3,5-dimethoxyphenyl)pyrido[3,4-d]pyrimidin-2-yl)amino)-1-methyl-1H-pyrazol-4-yl)acrylamide] | 62.6 nM | 23.8 nM | 24 nM
4 | [2H]C([2H])([2H])Oc1cc(OC([2H])([2H])[2H])c(Cl)c(-c2cc3cnc(N[C@@H]4COC[C@@H]4NC(=O)C=C)nc3c(NCC3CC3)n2)c1Cl [Example 425, N-((3R,4S)-4-((8-((cyclopropylmeth-yl)amino)-6-(2,6-dichloro-3,5-bis(meth-oxy-d3)phenyl)pyrido[3,4-d]pyrimi-din-2-yl)amino)tetrahydrofuran-3-yl)acrylamide] | – | – | 7.7 nM
5 | C=CC(=O)N[C@H]1COC[C@H]1Nc1ncc2cc(-c3c(Cl)c(OC)cc(OC)c3Cl)nc(NCCN(C)C)c2n1 [Example 431, N-((3R,4S)-4-((6-(2,6-dichloro-3,5-di-methoxyphenyl)-8-((2-(dimethylami-no)ethyl)amino)pyrido[3,4-d]pyrimi-din-2-yl)amino)tetrahydrofuran-3-yl) acrylamide] | – | – | 519 nM
6 | C=CC(=O)N[C@H]1COC[C@H]1Nc1ncc2cc(-c3c(Cl)c(OC)cc(OC)c3Cl)nc(N(C)C)c2n1 [Example 436, N-((3R,4S)-4-((6-(2,6-dichloro-3,5-di-methoxyphenyl)-8-(dimethylamino)pyrido[3,4-d]pyrimidin-2-yl)amino)tetrahydrofuran-3-yl)acrylamide] | – | – | > 10000 nM
7 | C=CC(=O)N[C@H]1COC[C@H]1Nc1ncc2cc(-c3c(Cl)c(OC)cc(OC)c3Cl)nc(NCC3CCOC3)c2n1 (stereo partly drawn) [Example 439, N-((3R,4S)-4-((6-(2,6-dichloro-3,5-di-methoxyphenyl)-8-(((tetrahydrofuran-3-yl)methyl)amino)pyrido[3,4-d]py-rimidin-2-yl)amino)tetrahydrofuran-3-yl)acrylamide] | – | – | 4.6 nM
8 | C=CC(=O)N[C@H]1COC[C@H]1Nc1ncc2cc(-c3c(Cl)c(OC)cc(OC)c3Cl)nc(NC3CCOCC3)c2n1 [Example 444, N-((3R,4S)-4-((6-(2,6-dichloro-3,5-di-methoxyphenyl)-8-((tetrahydro-2H-pyran-4-yl)amino)pyrido[3,4-d]py-rimidin-2-yl)amino)tetrahydrofuran-3-yl)acrylamide] | – | – | 7 nM
9 | C=CC(=O)N[C@H]1COC[C@H]1Nc1ncc2cc(-c3c(Cl)c(OC)cc(OC)c3Cl)nc(NCCCCN(C)C)c2n1 [Example 465, N-((3R,4S)-4-((6-(2,6-dichloro-3,5-di-methoxyphenyl)-8-((4-(dimethylamino)butyl)amino)pyrido[3,4-d]pyrimi-din-2-yl)amino)tetrahydrofuran-3-yl) acrylamide] | – | – | 46.4 nM
10 | C=CC(=O)N[C@H]1COC[C@H]1Nc1ncc2cc(-c3c(Cl)c(OC)cc(OC)c3Cl)nc(C3CC3)c2n1 [Example 609, N-((3R,4S)-4-((8-cyclopropyl-6-(2,6-dichloro-3,5-dimethoxyphenyl)pyri-do[3,4-d]pyrimidin-2-yl)amino)tetra-hydrofuran-3-yl)acrylamide] | 56.1 nM | 36.6 nM | –
11 | C=CC(=O)N[C@H]1COC[C@H]1Nc1ncc2cc(-c3c(Cl)c(OC)cc(OC)c3Cl)nc(OCc3cc(OC)cc(OC)c3)c2n1 [Example 755, N-((3R,4S)-4-((6-(2,6-dichloro-3,5-dimethoxyphenyl)-8-((3,5-dimethoxy-benzyl)oxy)pyrido[3,4-d]pyrimidin-2-yl)amino)tetrahydrofuran-3-yl) acrylamide] | – | – | 43 nM
12 | C=CC(=O)N[C@H]1COC[C@H]1Nc1ncc2cc(-c3c(F)ccc(OC)c3F)nc(NC)c2n1 [Example 777, N-((3R,4S)-4-((6-(2,6-difluoro-3-meth-oxyphenyl)-8-(methylamino)pyri-do[3,4-d]pyrimidin-2-yl)amino)tetra-hydrofuran-3-yl)acrylamide] | 660 nM | 651 nM | –
13 | C=CC(=O)N[C@H]1COC[C@H]1Nc1ncc2cc(-c3c(Cl)c(OC)cc(OC)c3Cl)nc(N3CC[C@](C)(O)C3)c2n1 [Example 778, N-((3R,4S)-4-((6-(2,6-dichloro-3,5-dimethoxyphenyl)-8-((S)-3-hydroxy-3-methylpyrrolidin-1-yl)pyrido[3,4-d]py-rimidin-2-yl)amino)tetrahydrofuran-3-yl)acrylamide] | 11.2 nM | 9.5 nM | –
14 | C=CC(=O)N[C@H]1COC[C@H]1Nc1ncc2cc(-c3c(Cl)c(OC)cc(OC)c3Cl)nc(N3CC[C@@](C)(O)C3)c2n1 [Example 779, N-((3R,4S)-4-((6-(2,6-dichloro-3,5-dimethoxyphenyl)-8-((R)-3-hydroxy-3-methylpyrrolidin-1-yl)pyrido[3,4-d]pyrimidin-2-yl)amino)tetrahydro-furan-3-yl)acrylamide] | 8.6 nM | 7.5 nM | –

The remaining lines, values ahead:

Row | IC50 [1] | EC50 [1] | IC50 (FGFR4) | Compound
15 | 126 nM | 27 nM | 18 nM | C=CC(=O)N[C@H]1CCOC[C@H]1Nc1ncc2cc(-c3c(Cl)c(OC)cc(OC)c3Cl)ccc2n1 [BLU-554]
16 | 1360 nM | 549 nM | – | C=CC(=O)Nc1cccc(C)c1Nc1ncc2cc(-c3c(Cl)c(OC)cc(OC)c3Cl)ccc2n1 [BLU-9931]
17 | 2450 nM | 1530 nM | 13.9 nM | C=CC(=O)Nc1cccc(C)c1Nc1cc2c(=O)n(C)c(-c3c(Cl)c(OC)cc(OC)c3Cl)cc2cn1 [Example 1, N-(2-((7-(2,6-dichloro-3,5-dimethoxyphenyl)-6-methyl-5-oxo-5,6-dihydro-2,6-naphthyridin-3-yl)amino)-3-methylphenyl)acrylamide]
18 | > 10000 nM | > 10000 nM | 26.1 nM | C=CC(=O)Nc1cccc(C)c1Nc1cc2c(=O)[nH]c(-c3c(Cl)c(OC)cc(OC)c3Cl)nc2cn1 [Example 5, N-(2-((2-(2,6-dichloro-3,5-dimethoxyphenyl)-4-oxo-3,4-dihydropyrido[3,4-d]pyrimidin-6-yl)amino)-3-methyl-phenyl)acrylamide]
19 | > 10000 nM | > 10000 nM | 28.9 nM | C=CC(=O)Nc1cccc(C)c1Nc1cc2c(=O)oc(-c3c(Cl)c(OC)cc(OC)c3Cl)cc2cn1 [Example 7, N-(2-((3-(2,6-dichloro-3,5-dimethoxyphenyl)-1-oxo-1 H-pyrano[4,3-c]pyridin-7-yl)amino)-3-methylphenyl) acrylamide]
20 | 1050 nM | 89 nM | 138 nM | C=CC(=O)Nc1cccc(C)c1Nc1cc2c(OC)nc(-c3c(Cl)c(OC)cc(OC)c3Cl)cc2cn1 [Example 9, N-(2-((7-(2,6-dichloro-3,5-dimethoxyphenyl)-5-dimethoxy-2,6-naphthyridin-3-yl)amino)-3-methylphenyl)acryl-amide]
21 | 4820 nM | 3520 nM | 105 nM | C=CC(=O)Nc1cccc(C)c1Nc1cc2c(OC)nc(-c3c(Cl)c(OC)cc(OC)c3Cl)nc2cn1 [Example 10, N-(2-((2-(2,6-dichloro-3,5-dimethoxyphenyl)-4-methoxy-pyrido[3,4-d]pyrimidin-6-yl)amino)-3-methylphenyl) acrylamide]
22 | 4720 nM | 4720 nM | 101 nM | C=CC(=O)Nc1cccc(C)c1Nc1cc2c(=O)n(CCOC)c(-c3c(Cl)c(OC)cc(OC)c3Cl)nc2cn1 [Example 11, N-(2-((2-(2,6-dichloro-3,5-dimethoxyphenyl)-3-(2-methoxyethyl)-4-oxo-3,4-dihydropyrido[3,4-d]pyrimidin-6-yl)amino)-3-methylphenyl) acrylamide]
23 | 268 nM | 54.2 nM | 53.3 nM | C=CC(=O)Nc1cn(C)nc1Nc1ncc2cc(-c3c(Cl)c(OC)cc(OC)c3Cl)ncc2n1 [Example 64, N-(3-((6-(2,6-dichloro-3,5-dimethoxyphenyl)pyrido[3,4-d]pyrimidin-2-yl)amino)-1-methyl-1H-pyrazol-4-yl) acrylamide]
